Measured values from PubChem BioAssay (NCI).
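These data come from cells grown in 96-well plates and exposed to compound for 48 hours at five concentrations. TGI: concentration producing complete growth inhibition.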

test system: MALME-3M melanoma; experiment: growth of human tumour cells (NCI), 48 h

For COc1ccc(NC(=S)c2ccc(CN3CCCCC3)s2)cc1, which TGI is on record?
The TGI was 37.6 µM.

N#Cc1cccc(-n2[nH]c(=O)ccc2=O)c1 was tested. Which TGI did it give?
The TGI was > 100 µM.

How did the TGI turn out when Cc1ccc(S[C@@H](C)[C@@](O)(CF)CN(Cc2ccccc2)C(=O)C(F)(F)F)cc1 was run?
Its TGI is 44.2 µM.

With CCN(CC)CCCNC(=O)c1cc(-c2nccn2C)nc2ccccc12 as the compound, how does the TGI read?
Its TGI is > 100 µM.

Which TGI does the source give for O=C1/C(=C/c2ccco2)NC(=S)N1CN1CCCCC1 here?
Its TGI is > 100 µM.

With Nc1nc(Cl)cc(OCC2(CO)CC=CC2)n1 as the compound, how does the TGI read?
The TGI was > 100 µM.

For CC(C)=C[C@H]1C[C@H](C)[C@H]2CC[C@H](C)c3c2c1c(C)c1ncoc31, which TGI is on record?
Its TGI is 29.5 µM.

test system: HCC-2998 colon; experiment: growth of human tumour cells (NCI), 48 h

CCCCCCc1cc2cc(-c3cn4ccsc4n3)c(=O)oc2cc1O was tested. Which TGI did it give?
The TGI was > 100 µM.

COC(=O)[C@]1(C)CCC[C@@]2(C)C1CC[C@@]13C=C(C(C)C)[C@@H](CC1=O)CC23 (stereo partly specified) was tested. Which TGI did it give?
The TGI was > 100 µM.

For Cc1nn(C(=O)Cc2ccccc2)c2c1C(c1ccccc1)SC(N)=N2 (stereo unspecified), which TGI is on record?
The TGI was > 100 µM.

For CCNC(=O)c1ccc(C)c(N=NN(C)C)c1, which TGI is on record?
Its TGI is > 100 µM.

Which TGI does the source give for C=CCNC(=S)N/C=C(\C#N)C(N)=O here?
The TGI was > 100 µM.

How did the TGI turn out when CCOC(=O)c1cc(-c2ccc(OC)cc2)c([N+](=O)[O-])n1C was run?
Its TGI is > 10 µM.

With COc1ccc(C2=CC(C(C)=C(C(N)=O)C(N)=O)C=C(c3ccc(Br)cc3)C2)c(OC)c1 (stereo unspecified) as the compound, how does the TGI read?
Its TGI is > 100 µM.

Which TGI does the source give for O=C1c2sc(-c3ccc(Cl)cc3)cc2-n2cccc21 here?
The TGI was > 100 µM.

How did the TGI turn out when CC(C)C(NC(=O)Oc1ccccc1)C(=O)NC1c2c(Br)sc(Br)c2C(=O)C1O (stereo unspecified) was run?
The TGI was 7.68 µM.

How did the TGI turn out when COCCOCOC(CCCCO)c1cc(C)c(O[Si](C)(C)C(C)(C)C)c(C)c1 (stereo unspecified) was run?
The TGI was 19.8 µM.

How did the TGI turn out when CSC(=O)c1sc(SC)[n+](-c2ccccc2)c1O was run?
The TGI was 44.8 µM.

With CC1=NN(c2nc(N)nc(COc3ccc(N)cc3)n2)C(C)(C)C1 as the compound, how does the TGI read?
The TGI was > 100 µM.

For Cc1cc(OC(=O)Nc2cccc3ccccc23)c(C(C)C)cc1C(=S)Nc1ccccc1, which TGI is on record?
The TGI was 38.8 µM.

CC(=O)OCCOCNC(=S)N/N=C/c1ccc([N+](=O)[O-])o1 was tested. Which TGI did it give?
Its TGI is > 100 µM.

With COc1cc(C2C(Cl)C(=O)N2n2cnc3ccccc3c2=O)ccc1O (stereo unspecified) as the compound, how does the TGI read?
Its TGI is > 100 µM.

How did the TGI turn out when COc1ccc(C2Oc3cc(OC)c(OC)cc3C2CCl)cc1OC (stereo unspecified) was run?
The TGI was > 100 µM.

Which TGI does the source give for COC(=O)c1cccc(C)c1C1CN=NC12Cc1cc(C)cc(C)c1C2=O (stereo unspecified) here?
Its TGI is 76.7 µM.

For COc1cc(OCCN(C)C)c2[nH]c(C(=O)N3CC(CCl)c4ccc(N)cc43)cc2c1 (stereo unspecified), which TGI is on record?
The TGI was 0.297 µM.

Which TGI does the source give for O=C1c2ccccc2-n2nnnc2C2CSCN12 (stereo unspecified) here?
Its TGI is > 100 µM.

How did the TGI turn out when O=c1[nH]c(=O)c2c3n(cc2[nH]1)CCCCC3 was run?
Its TGI is > 100 µM.

For COc1ccc(NC(=S)c2ccc(CN3CCCCC3)s2)cc1, which TGI is on record?
Its TGI is 32.3 µM.

N#Cc1cccc(-n2[nH]c(=O)ccc2=O)c1 was tested. Which TGI did it give?
Its TGI is > 100 µM.

With Cc1ccc(S[C@@H](C)[C@@](O)(CF)CN(Cc2ccccc2)C(=O)C(F)(F)F)cc1 as the compound, how does the TGI read?
The TGI was 41.5 µM.

For CCN(CC)CCCNC(=O)c1cc(-c2nccn2C)nc2ccccc12, which TGI is on record?
The TGI was > 100 µM.

For Nc1nc(Cl)cc(OCC2(CO)CC=CC2)n1, which TGI is on record?
The TGI was > 100 µM.

How did the TGI turn out when CCOC(=O)CCCSCCCC(=O)CCCSCCCC(=O)OCC was run?
Its TGI is > 100 µM.

How did the TGI turn out when CC(C)=C[C@H]1C[C@H](C)[C@H]2CC[C@H](C)c3c2c1c(C)c1ncoc31 was run?
The TGI was 35.8 µM.

For O=C1/C(=C\c2ccc(Cl)cc2Cl)Sc2scc(-c3ccc(O)c(O)c3)[n+]21, which TGI is on record?
Its TGI is 40.9 µM.

Which TGI does the source give for CCOC(=O)C(=[N+]=[N-])C(=O)CN1C(=O)c2ccccc2C1=O here?
The TGI was > 100 µM.

test system: HOP-92 NSCLC; experiment: growth of human tumour cells (NCI), 48 h

For CCCCCCc1cc2cc(-c3cn4ccsc4n3)c(=O)oc2cc1O, which TGI is on record?
The TGI was > 100 µM.

For CCNC(=O)c1ccc(C)c(N=NN(C)C)c1, which TGI is on record?
Its TGI is > 100 µM.

With CCOC(=O)c1cc(-c2ccc(OC)cc2)c([N+](=O)[O-])n1C as the compound, how does the TGI read?
Its TGI is > 10 µM.

COc1ccc(C2=CC(C(C)=C(C(N)=O)C(N)=O)C=C(c3ccc(Br)cc3)C2)c(OC)c1 (stereo unspecified) was tested. Which TGI did it give?
Its TGI is > 100 µM.

How did the TGI turn out when CC1=NN(c2nc(N)nc(COc3ccc(N)cc3)n2)C(C)(C)C1 was run?
Its TGI is > 100 µM.

For COc1cc2c(/C=C3/C(=O)Nc4cccc(Cl)c43)c(Cl)[nH]c2cc1C, which TGI is on record?
Its TGI is 22.6 µM.

How did the TGI turn out when Nc1ncc2c(n1)-c1ccccc1OC2N1CCCCC1 (stereo unspecified) was run?
The TGI was > 100 µM.

Which TGI does the source give for COc1ccc(C2Oc3cc(OC)c(OC)cc3C2CCl)cc1OC (stereo unspecified) here?
The TGI was > 100 µM.

How did the TGI turn out when COC(=O)c1cccc(C)c1C1CN=NC12Cc1cc(C)cc(C)c1C2=O (stereo unspecified) was run?
The TGI was > 100 µM.

Which TGI does the source give for COc1cc(OCCN(C)C)c2[nH]c(C(=O)N3CC(CCl)c4ccc(N)cc43)cc2c1 (stereo unspecified) here?
Its TGI is 0.617 µM.

For O=c1[nH]c(=O)c2c3n(cc2[nH]1)CCCCC3, which TGI is on record?
Its TGI is > 100 µM.

N#Cc1cccc(-n2[nH]c(=O)ccc2=O)c1 was tested. Which TGI did it give?
Its TGI is > 100 µM.

Cc1ccc(S[C@@H](C)[C@@](O)(CF)CN(Cc2ccccc2)C(=O)C(F)(F)F)cc1 was tested. Which TGI did it give?
Its TGI is > 100 µM.

For CCN(CC)CCCNC(=O)c1cc(-c2nccn2C)nc2ccccc12, which TGI is on record?
The TGI was > 100 µM.

How did the TGI turn out when O=C1/C(=C/c2ccco2)NC(=S)N1CN1CCCCC1 was run?
The TGI was > 100 µM.

How did the TGI turn out when Nc1nc(Cl)cc(OCC2(CO)CC=CC2)n1 was run?
The TGI was > 100 µM.

Which TGI does the source give for CCOC(=O)CCCSCCCC(=O)CCCSCCCC(=O)OCC here?
The TGI was > 100 µM.

For CC(C)=C[C@H]1C[C@H](C)[C@H]2CC[C@H](C)c3c2c1c(C)c1ncoc31, which TGI is on record?
The TGI was 31.4 µM.

With O=C1/C(=C\c2ccc(Cl)cc2Cl)Sc2scc(-c3ccc(O)c(O)c3)[n+]21 as the compound, how does the TGI read?
The TGI was 23.1 µM.

CCOC(=O)C(=[N+]=[N-])C(=O)CN1C(=O)c2ccccc2C1=O was tested. Which TGI did it give?
The TGI was > 100 µM.
